Measurements as given in ChEMBL document CHEMBL2016567, “Novel acridinedione derivatives: design, synthesis, SIRT1 enzyme and tumor cell growth inhibition studies” (Bioorg Med Chem Lett, 2012).
Calls of active or inactive are those of the source. The calls are words filed in the database; no cut-off is given here.

Key:
HEK293 = experiment: Cytotoxicity against human HEK293 cells at 10 uM; type: cell-based; details: hek293, 10 µM
[1] = target: T1, NAD-dependent protein deacetylase sirtuin-1 (Homo sapiens, UniProt Q96EB6); experiment: Inhibition of human SIRT1 using Fluor-de-Lys as substrate
T1 sequence (Q96EB6 whole entry): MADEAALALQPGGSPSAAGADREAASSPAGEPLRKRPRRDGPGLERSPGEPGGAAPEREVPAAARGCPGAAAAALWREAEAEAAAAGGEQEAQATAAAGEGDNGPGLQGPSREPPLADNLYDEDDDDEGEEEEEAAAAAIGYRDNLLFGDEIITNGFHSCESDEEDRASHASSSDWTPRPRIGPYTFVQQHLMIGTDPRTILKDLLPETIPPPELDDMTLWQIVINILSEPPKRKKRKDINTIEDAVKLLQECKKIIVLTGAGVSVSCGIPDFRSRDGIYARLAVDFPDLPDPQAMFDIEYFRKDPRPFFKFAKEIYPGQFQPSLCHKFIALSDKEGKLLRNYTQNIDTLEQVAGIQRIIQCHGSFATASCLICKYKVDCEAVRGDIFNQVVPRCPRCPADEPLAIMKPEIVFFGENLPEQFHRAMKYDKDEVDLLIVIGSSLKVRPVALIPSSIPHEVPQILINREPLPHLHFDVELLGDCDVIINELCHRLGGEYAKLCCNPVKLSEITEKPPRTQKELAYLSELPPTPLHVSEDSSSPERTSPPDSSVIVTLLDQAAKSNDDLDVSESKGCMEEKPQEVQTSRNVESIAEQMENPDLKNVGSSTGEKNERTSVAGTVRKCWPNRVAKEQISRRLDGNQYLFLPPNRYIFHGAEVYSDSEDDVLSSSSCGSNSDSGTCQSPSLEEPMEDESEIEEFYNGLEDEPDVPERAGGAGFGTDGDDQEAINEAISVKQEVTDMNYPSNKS

[2] = target: T2, NAD-dependent protein deacetylase sirtuin-1 (Homo sapiens) (UniProt Q96EB6); experiment: Inhibition of human SIRT1 using Fluor-de-Lys as substrate at 50 uM
T2 sequence (whole entry): T1 sequence (Q96EB6 whole entry)

MDA-MB-231 [3] = experiment: Growth inhibition of human MDA-MB-231 cells; type: functional, cell-based
K562 = experiment: Growth inhibition of human K562 cells; type: functional, cell-based
MDA-MB-231 [4] = experiment: Decrease in SIRT1 protein level in human MDA-MB-231 cells after 24 hrs by Western blot analysis; type: functional, cell-based
[5] = target: T2, NAD-dependent protein deacetylase sirtuin-1 (Homo sapiens); experiment: Inhibition of SIRT1 in human MDA-MB-231 cells assessed as increase in p53 acetylation at lysine 382 residue after 24 hrs by Western blot analysis; type: cell-based

Compound	Activity (HEK293)	IC50 [1]	inhibition [2]	IC50 (MDA-MB-231 [3])	IC50 (K562)	Activity (MDA-MB-231 [4])	inhibition [5]
CC1(C)CC(=O)C2=C(C1)N(NC(=O)c1ccccc1)C1=C(C(=O)CC(C)(C)C1)C2c1ccc(OCc2ccccc2)cc1	Non-toxic	46 µM	52%	3.16 µM	–	–	–
CC1(C)CC(=O)C2=C(C1)N(NC(=O)c1ccccc1)C1=C(C(=O)CC(C)(C)C1)C2c1cccc(OCc2ccccc2)c1	–	–	21.5%	–	–	–	–
Cc1ccc(C(=O)Nc2ccc(S(=O)(=O)O)c3cc(S(=O)(=O)O)cc(S(=O)(=O)O)c23)cc1NC(=O)c1cccc(NC(=O)Nc2cccc(C(=O)Nc3cc(C(=O)Nc4ccc(S(=O)(=O)O)c5cc(S(=O)(=O)O)cc(S(=O)(=O)O)c45)ccc3C)c2)c1 [SURAMIN]	Non-toxic	–	53.9%	31.2 µM	18.5 µM	–	–
CC1(C)CC(=O)C2=C(C1)N(Nc1ccc([N+](=O)[O-])cc1[N+](=O)[O-])C1=C(C(=O)CC(C)(C)C1)C2c1cccc(OCc2ccccc2)c1	–	–	33.2%	–	–	–	–
CC1(C)CC(=O)C2=C(C1)N(Nc1ccccc1)C1=C(C(=O)CC(C)(C)C1)C2c1cccc(OCc2ccccc2)c1	Non-toxic	40.1 µM	51.4%	0.99 µM	–	–	–
CC1(C)CC(=O)C2=C(C1)N(NC(=O)c1ccc(Cl)cc1Cl)C1=C(C(=O)CC(C)(C)C1)C2c1cccc(OCc2ccccc2)c1	–	–	4.7%	–	–	–	–
CC1(C)CC(=O)C2=C(C1)N(NC(=O)c1ccncc1)C1=C(C(=O)CC(C)(C)C1)C2c1ccccc1OCc1ccccc1	Non-toxic	–	72.6%	5 µM	10 µM	–	–
CC1(C)CC(=O)C2=C(C1)N(NC(=O)c1ccc([N+](=O)[O-])cc1)C1=C(C(=O)CC(C)(C)C1)C2c1ccccc1OCc1ccccc1	–	–	39%	–	–	–	–
CC1(C)CC(=O)C2=C(C1)N(NC(=O)c1ccncc1)C1=C(C(=O)CC(C)(C)C1)C2c1cccc(OCc2ccccc2)c1	Non-toxic	–	53.7%	> 50 µM	10 µM	–	–
COc1ccc(C(=O)NN2C3=C(C(=O)CC(C)(C)C3)C(c3ccc(OCc4ccccc4)cc3)C3=C2CC(C)(C)CC3=O)c(OC)n1	Non-toxic	25 µM	55.1%	0.31 µM	–	–	–
CC1(C)CC(=O)C2=C(C1)N(NC(=O)c1ccc(Cl)cc1Cl)C1=C(C(=O)CC(C)(C)C1)C2c1ccc(OCc2ccccc2)cc1	–	–	3.6%	–	–	–	–
CC1(C)CC(=O)C2=C(C1)N(NC(=O)c1ccc([N+](=O)[O-])cc1)C1=C(C(=O)CC(C)(C)C1)C2c1ccc(OCc2ccccc2)cc1	–	–	35.6%	–	–	–	–
CC1(C)CC(=O)C2=C(C1)N(Nc1ccccc1)C1=C(C(=O)CC(C)(C)C1)C2c1ccccc1OCc1ccccc1	Non-toxic	11.1 µM	82.1%	50 µM	–	–	–
CC1(C)CC(=O)C2=C(C1)N(Nc1ccccc1)C1=C(C(=O)CC(C)(C)C1)C2c1ccc(OCc2ccccc2)cc1	Non-toxic	43.1 µM	55.2%	1.38 µM	–	–	–
COc1cccc2c1C(=O)c1c(O)c3c(c(O)c1C2=O)C[C@@](O)(C(=O)CO)C[C@@H]3O[C@H]1C[C@H](N)[C@H](O)[C@H](C)O1 [DOXORUBICIN]	Non-toxic	–	–	10 µM	–	–	–
CC1(C)CC(=O)C2=C(C1)N(NC(=O)c1ccc([N+](=O)[O-])cc1)C1=C(C(=O)CC(C)(C)C1)C2c1cccc(OCc2ccccc2)c1	–	–	33.6%	–	–	–	–
CC1(C)CC(=O)C2=C(C1)N(Nc1ccc([N+](=O)[O-])cc1[N+](=O)[O-])C1=C(C(=O)CC(C)(C)C1)C2c1ccc(OCc2ccccc2)cc1	Non-toxic	43.3 µM	54.8%	6.63 µM	–	–	–
CC1(C)CC(=O)C2=C(C1)N(NC(=O)c1ccccc1)C1=C(C(=O)CC(C)(C)C1)C2c1ccccc1OCc1ccccc1	–	–	39.7%	–	–	–	–
COc1ccc(C(=O)NN2C3=C(C(=O)CC(C)(C)C3)C(c3ccccc3OCc3ccccc3)C3=C2CC(C)(C)CC3=O)c(OC)n1	–	–	35.2%	–	–	–	–
CC1(C)CC(=O)C2=C(C1)N(Nc1ccc([N+](=O)[O-])cc1[N+](=O)[O-])C1=C(C(=O)CC(C)(C)C1)C2c1ccccc1OCc1ccccc1	Non-toxic	10.1 µM	83.2%	0.25 µM	–	Dose-dependent effect	Dose-dependent effect
CC1(C)CC(=O)C2=C(C1)N(NC(=O)c1ccncc1)C1=C(C(=O)CC(C)(C)C1)C2c1ccc(OCc2ccccc2)cc1	Non-toxic	–	inactive	> 50 µM	> 50 µM	–	–
COc1ccc(C(=O)NN2C3=C(C(=O)CC(C)(C)C3)C(c3cccc(OCc4ccccc4)c3)C3=C2CC(C)(C)CC3=O)c(OC)n1	–	–	35.6%	–	–	–	–
